PubChem BioAssay AID248 (DTP/NCI, 2004)
Values joined by “and” are separate entries in the source; they are usually repeats but may differ in a detail not shown here. Identical values can stand only once. Toxic doses and inconclusive results are not listed.

Test system: L1210 leukemia ip in BDF1 mice, survival T/C
Assay: NCI In Vivo Anticancer Drug Screen. Data for tumor model L1210 Leukemia (intraperitoneal) in B6D2F1 (BDF1) mice
Details: endpoint: mean survival time, higher = longer survival
Summary of the method: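 Tumor was transplanted into mice, which were then dosed with test compound or vehicle alone. Survival was recorded for each group, and the treated figure was expressed relative to the control figure.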

[1] = dose: 50.0 mg/kg/injection, schedule: Q01DX009 (ip), vehicle: saline with Tween-80
[2] = dose: 100.0 mg/kg/injection, schedule: Q01DX009 (ip), vehicle: saline with Tween-80
[3] = dose: 200.0 mg/kg/injection, schedule: Q01DX009 (ip), vehicle: saline with Tween-80
[4] = dose: 100.0 mg/kg/injection, schedule: Q01DX001 (ip), vehicle: saline
[5] = dose: 200.0 mg/kg/injection, schedule: Q01DX001 (ip), vehicle: saline
[6] = dose: 400.0 mg/kg/injection, schedule: Q01DX001 (ip), vehicle: saline
[7] = dose: 100.0 mg/kg/injection, schedule: Q01DX009 (ip), vehicle: Klucel (hydroxypropylcellulose) (HPC)
[8] = dose: 100.0 mg/kg/injection, schedule: Q04DX003 (ip), vehicle: Klucel (hydroxypropylcellulose) (HPC)
[9] = dose: 200.0 mg/kg/injection, schedule: Q01DX009 (ip), vehicle: Klucel (hydroxypropylcellulose) (HPC)
[10] = dose: 200.0 mg/kg/injection, schedule: Q04DX003 (ip), vehicle: Klucel (hydroxypropylcellulose) (HPC)
[11] = dose: 400.0 mg/kg/injection, schedule: Q04DX003 (ip), vehicle: Klucel (hydroxypropylcellulose) (HPC)
[12] = dose: 400.0 mg/kg/injection, schedule: Q01DX009 (ip), vehicle: Klucel (hydroxypropylcellulose) (HPC)
[13] = dose: 100.0 mg/kg/injection, schedule: Q01DX001 (ip), vehicle: carboxymethylcellulose (CMC)
[14] = dose: 200.0 mg/kg/injection, schedule: Q01DX001 (ip), vehicle: carboxymethylcellulose (CMC)
[15] = dose: 400.0 mg/kg/injection, schedule: Q01DX001 (ip), vehicle: carboxymethylcellulose (CMC)
[16] = dose: 100.0 mg/kg/injection, schedule: Q01DX001 (ip), vehicle: Klucel (hydroxypropylcellulose) (HPC)
[17] = dose: 200.0 mg/kg/injection, schedule: Q01DX001 (ip), vehicle: Klucel (hydroxypropylcellulose) (HPC)

Question: O=S(=O)(OC1CCCC1Cl)c1ccc(Br)cc1 (stereo not drawn) was tested. Which T/C [1] did it give?
Answer: 93 % of control

Question: And the T/C [2]?
Answer: 93 % of control

Question: And the T/C [3]?
Answer: 86 % of control

Question: Which T/C [4] does the source give for CCOC(=O)CCC(=O)C(=O)OCC here?
Answer: 92 % of control

Question: And the T/C [5]?
Answer: 102 % of control

Question: And the T/C [6]?
Answer: 92 % of control

Question: With CC(=O)Nc1ccc(NC(=O)C2C3C=CC(C3)C2C(=O)O)cc1 (stereo not drawn) as the molecule, how does the T/C [1] read?
Answer: 101 % of control

Question: What about the T/C [2] of the same molecule?
Answer: 107 % of control

Question: And the T/C [3]?
Answer: 93 % of control

Question: Which T/C [7] does the source give for O=[N+]([O-])c1cc2c3ccccc3oc2c2cccnc12 here?
Answer: 91 % of control

Question: What about the T/C [8] of the same molecule?
Answer: 90 % of control

Question: What about the T/C [9] of the same molecule?
Answer: 90 % of control

Question: What about the T/C [10] of the same molecule?
Answer: 90 % of control

Question: And the T/C [11]?
Answer: 89 % of control

Question: What does the source list for COc1ccc(C(C(C)=O)N2CCN(c3ccccc3)CC2)cc1 (stereo not drawn)?
Answer: T/C (dose: 100.0 mg/kg/injection, schedule: Q04DX003 (ip), vehicle: other): 98 % of control; T/C (dose: 200.0 mg/kg/injection, schedule: Q04DX003 (ip), vehicle: other): 95 % of control

Question: What does the source list for O=C(N/N=C/c1ccc2c(c1)CCC2)c1cccs1?
Answer: T/C [8]: 97 % of control; T/C [10]: 103 % of control; T/C [11]: 107 % of control

Question: For Nc1nc(N)c2c(Cl)c(CNc3ccc(C(=O)NC(CC(=O)O)CC(=O)O)cc3)ccc2n1, which T/C (dose: 12.5 mg/kg/injection, schedule: Q04DX003 (ip), vehicle: saline) is on record?
Answer: 157 % of control

Question: What about the T/C (dose: 25.0 mg/kg/injection, schedule: Q04DX003 (ip), vehicle: saline) of the same molecule?
Answer: 178 % of control

Question: And the T/C (dose: 50.0 mg/kg/injection, schedule: Q04DX003 (ip), vehicle: saline)?
Answer: 90 % of control

Question: Which results are given for OC(c1ccccc1)(c1ccccc1)c1cccnc1?
Answer: T/C (dose: 75.0 mg/kg/injection, schedule: Q04DX002 (ip), vehicle: saline): 105 % of control; T/C (dose: 150.0 mg/kg/injection, schedule: Q04DX002 (ip), vehicle: saline): 93 % of control

Question: O=C(OOC(=O)c1ccccc1)c1ccccc1 was tested. Which T/C (dose: 50.0 mg/kg/injection, schedule: Q01DX001 (ip), vehicle: other) did it give?
Answer: 96 % of control

Question: What about the T/C (dose: 100.0 mg/kg/injection, schedule: Q01DX001 (ip), vehicle: other) of the same molecule?
Answer: 94 % of control

Question: And the T/C (dose: 200.0 mg/kg/injection, schedule: Q01DX001 (ip), vehicle: other)?
Answer: 102 % of control

Question: What about the T/C (dose: 400.0 mg/kg/injection, schedule: Q01DX001 (ip), vehicle: other) of the same molecule?
Answer: 102 % of control

Question: CCN(CC)CCCNC(c1ccc(OC)c(OC)c1)C(Cl)(Cl)Cl (stereo not drawn) was tested. Which T/C (dose: 75.0 mg/kg/injection, schedule: Q01DX001 (ip), vehicle: saline) did it give?
Answer: 98 % of control

Question: And the T/C (dose: 150.0 mg/kg/injection, schedule: Q01DX001 (ip), vehicle: saline)?
Answer: 91 % of control

Question: For CN(C)C=Nc1cc2c(cc1Br)-c1ccccc1C2=O, which T/C [7] is on record?
Answer: 101 % of control

Question: What about the T/C [9] of the same molecule?
Answer: 95 % of control

Question: And the T/C [12]?
Answer: 93 % of control

Question: Which T/C [8] does the source give for NNC(=O)Cc1ccc(Cl)c2ccccc12 here?
Answer: 104 % of control

Question: And the T/C [10]?
Answer: 91 % of control

Question: For CCC(O)CN (stereo not drawn), which T/C (dose: 100.0 mg/kg/injection, schedule: Q04DX003 (ip), vehicle: saline) is on record?
Answer: 96 % of control and 107 % of control

Question: And the T/C (dose: 200.0 mg/kg/injection, schedule: Q04DX003 (ip), vehicle: saline)?
Answer: 96 % of control

Question: What about the T/C (dose: 400.0 mg/kg/injection, schedule: Q04DX003 (ip), vehicle: saline) of the same molecule?
Answer: 95 % of control

Question: Which results are given for CC(C)(C)CC1=C(O)c2ccccc2C(=O)C1=O?
Answer: T/C (dose: 50.0 mg/kg/injection, schedule: Q01DX001 (ip), vehicle: carboxymethylcellulose (CMC)): 114 % of control; T/C [13]: 111 % of control; T/C [14]: 105 % of control; T/C [15]: 100 % of control

Question: COc1cc(C(=O)Nc2ccc(F)cc2)cc(OC)c1OC was tested. Which T/C [7] did it give?
Answer: 92 % of control

Question: What about the T/C [9] of the same molecule?
Answer: 97 % of control

Question: What about the T/C [12] of the same molecule?
Answer: 94 % of control

Question: Which T/C (dose: 200.0 mg/kg/injection, schedule: Q01DX Z (ip), vehicle: methylcellulose (MC)) does the source give for Nc1cc(Nc2ccc(CCO)cc2)nc(N)n1 here?
Answer: 86 % of control

Question: Cc1cc(=O)cc(S)[nH]1 was tested. Which T/C [13] did it give?
Answer: 94 % of control

Question: And the T/C [14]?
Answer: 100 % of control

Question: And the T/C [15]?
Answer: 91 % of control

Question: Cc1ccc2c(ccc3c[n+]4c5ccccc5ccc4n32)c1 was tested. Which T/C (dose: 5.0 mg/kg/injection, schedule: Q01DX001 (ip), vehicle: saline) did it give?
Answer: 97 % of control

Question: What about the T/C (dose: 10.0 mg/kg/injection, schedule: Q01DX001 (ip), vehicle: saline) of the same molecule?
Answer: 100 % of control

Question: What about the T/C (dose: 20.0 mg/kg/injection, schedule: Q01DX001 (ip), vehicle: saline) of the same molecule?
Answer: 101 % of control

Question: What about the T/C (dose: 40.0 mg/kg/injection, schedule: Q01DX001 (ip), vehicle: saline) of the same molecule?
Answer: 117 % of control

Question: With CCC(/C=N/N=C(N)N)OC (stereo not drawn) as the molecule, how does the T/C (dose: 2.0 mg/kg/injection, schedule: Q01DX Z (oral), vehicle: saline) read?
Answer: 103 % of control

Question: What about the T/C (dose: 4.0 mg/kg/injection, schedule: Q01DX Z (oral), vehicle: saline) of the same molecule?
Answer: 101 % of control

Question: What about the T/C (dose: 8.0 mg/kg/injection, schedule: Q01DX Z (oral), vehicle: saline) of the same molecule?
Answer: 106 % of control

Question: And the T/C (dose: 16.0 mg/kg/injection, schedule: Q01DX Z (oral), vehicle: saline)?
Answer: 100 % of control

Question: What about the T/C (dose: 32.0 mg/kg/injection, schedule: Q01DX Z (oral), vehicle: saline) of the same molecule?
Answer: 110 % of control

Question: And the T/C (dose: 64.0 mg/kg/injection, schedule: Q01DX Z (oral), vehicle: saline)?
Answer: 100 % of control

Question: What about the T/C (dose: 128.0 mg/kg/injection, schedule: Q01DX Z (oral), vehicle: saline) of the same molecule?
Answer: 104 % of control and 113 % of control

Question: What about the T/C (dose: 256.0 mg/kg/injection, schedule: Q01DX Z (oral), vehicle: saline) of the same molecule?
Answer: 98 % of control and 115 % of control

Question: With O=c1nc(NO)ccn1C1CCCCO1 (stereo not drawn) as the molecule, how does the T/C [13] read?
Answer: 95 % of control

Question: What about the T/C [14] of the same molecule?
Answer: 95 % of control

Question: What about the T/C [15] of the same molecule?
Answer: 95 % of control

Question: How did the T/C (dose: 1.56 mg/kg/injection, schedule: Q04DX003 (ip), vehicle: saline with Tween-80) turn out when O=CNc1ccccc1.[Hg] was run?
Answer: 93 % of control

Question: What about the T/C (dose: 3.13 mg/kg/injection, schedule: Q04DX003 (ip), vehicle: saline with Tween-80) of the same molecule?
Answer: 92 % of control

Question: What about the T/C (dose: 6.25 mg/kg/injection, schedule: Q04DX003 (ip), vehicle: saline with Tween-80) of the same molecule?
Answer: 95 % of control and 112 % of control

Question: What does the source list for O=C(O)/C=C\Cc1cccc(=O)[nH]1?
Answer: T/C (dose: 50.0 mg/kg/injection, schedule: Q01DX001 (ip), vehicle: Klucel (hydroxypropylcellulose) (HPC)): 94 % of control; T/C [16]: 95 % of control; T/C [17]: 97 % of control

Question: Which results are given for NC(=O)c1ncn[nH]1?
Answer: T/C [1]: 113 % of control; T/C (dose: 50.0 mg/kg/injection, schedule: Q04DX003 (ip), vehicle: saline with Tween-80): 104 % of control; T/C [2]: 108 % of control; T/C (dose: 100.0 mg/kg/injection, schedule: Q04DX003 (ip), vehicle: saline with Tween-80): 110 % of control; T/C [3]: 120 % of control; T/C (dose: 200.0 mg/kg/injection, schedule: Q04DX003 (ip), vehicle: saline with Tween-80): 106 % of control

Question: With Ic1ccc(/C=C2\C=Cc3ccccc32)cc1 as the molecule, how does the T/C [13] read?
Answer: 100 % of control

Question: What about the T/C [14] of the same molecule?
Answer: 100 % of control

Question: What about the T/C [15] of the same molecule?
Answer: 100 % of control

Question: With Oc1ccccc1C=Nc1ccc(N=Cc2ccccc2O)cc1 as the molecule, how does the T/C [4] read?
Answer: 101 % of control

Question: And the T/C [5]?
Answer: 95 % of control

Question: And the T/C [6]?
Answer: 106 % of control

Question: CCOC(=O)CCc1c(C)c2ccc(O)cc2oc1=O was tested. Which T/C [4] did it give?
Answer: 98 % of control

Question: What about the T/C [5] of the same molecule?
Answer: 104 % of control

Question: And the T/C [6]?
Answer: 94 % of control

Question: What does the source list for CCCCCCCCCCCCCCCCNC(=S)Nc1ccc(C(=O)O)cc1?
Answer: T/C (dose: 12.0 mg/kg/injection, schedule: Q04DX003 (ip), vehicle: Klucel (hydroxypropylcellulose) (HPC)): 94 % of control; T/C (dose: 25.0 mg/kg/injection, schedule: Q04DX003 (ip), vehicle: Klucel (hydroxypropylcellulose) (HPC)): 104 % of control; T/C (dose: 50.0 mg/kg/injection, schedule: Q04DX003 (ip), vehicle: Klucel (hydroxypropylcellulose) (HPC)): 102 % of control; T/C [16]: 95 % of control; T/C [8]: 96 % of control; T/C [17]: 101 % of control; T/C [10]: 93 % of control; T/C (dose: 400.0 mg/kg/injection, schedule: Q01DX001 (ip), vehicle: Klucel (hydroxypropylcellulose) (HPC)): 105 % of control
